In series [1] the test system is human iPS cell-derived atrial myocytes. The experiment in a line: Siponimod-induced decrease in beating rate in human iPS cell-derived atrial myocytes (multi-electrode array). The following applies: 0.1 μM compound (I) added after 0.1 μM siponimod, observed 10 minutes; FIG. 6. Type of series: cell-based. The protocol: Cryopreserved human iPS cell-derived atrial myocytes (Human iPSC-derived atrial cardiomyocytes, available from Axol Bioscience) were thawed and seeded at 1,400,000 cells/well on a fibronectin-coated 6-well plate, followed by culturing in an incubator at 37° C. and 5% CO2 for 11 days. During the culture, the entire amount of medium was changed every other day. After the elapse of 11 days, human iPS cell-derived atrial myocytes that started beating were removed from the plate and recovered with TrypLE Select Enzyme (available from ThermoFisher Scientific). The atrial myocytes were seeded at 25,000 cells/2 μL on a fibronectin-coated 6-well MEA Chip (60-6well MEA200/30iR-Ti-tcr, available from Multi Channel Systems) and cultured in an incubator at 37° C. and 5% CO2 for one hour. Thereafter, 400 μL of medium was added and cultured in an incubator at 37° C. and 5% CO2 for 13 days. During the culture, a half amount of the medium was changed every other day. After the elapse of […], the MEA Chip was set in a multi-electrode array system (MEA2100, available from Multi Channel Systems) to thereby obtain extracellular potentials under spontaneous beating. […] Data were analyzed with Labchart System (available from ADInstruments).
In FIG. 6, the measurements are shown as mean±standard error, and (I) denotes compound (I).

Another series relates to Hartley guinea pigs. Briefly: Termination effect on fingolimod-induced bradyarrhythmia in isoflurane-anesthetized guinea pig model. Type of series: in vivo. The text has this:
Hartley guinea pigs (7 to 10 weeks old, male, available from Japan SLC, Inc.) were subjected to anesthetic induction by inhalation of isoflurane (available from Pfizer Japan Inc.), and each animal was held on an operating table having a heater function. The trachea was incised, and a tracheal cannula (KN-375, available from Natsume Seisakusho Co., Ltd.) was inserted. The tracheal cannula was connected to a ventilator (SN-480-7, available from Shinano Seisakusho Co., Ltd.), and artificial respiration was controlled by supplying 100% oxygen at a volume of 10 mL and a ventilation rate of 60 times/minute. Isoflurane (available from Pfizer Japan Inc.) anesthesia (about 1 to 4%, carrier gas: 100% oxygen) was used for maintenance of anesthesia. A catheter (BD intramedic polyethylene tubing PE50, available from Becton, Dickinson and Company) charged with 50 units/mL heparin (available from AY PHARMACEUTICALS CO., LTD.) was inserted into each of the carotid artery and the jugular vein and placed in the blood vessel. Systemic blood pressure was measured with a high-sensitivity DC amplifier (AD-611J, available from NIHON KOHDEN CORPORATION) via the catheter placed in the carotid artery. Electrodes were attached to the body surface, and a body surface electrocardiogram was measured with a high-sensitivity amplifier (AB-611J, available from NIHON KOHDEN CORPORATION). Blood pressure and electrocardiogram data were acquired and analyzed with PowerLab/Labchart system (available from ADInstruments). After stabilization of each parameter, fingolimod hydrochloride (available from Nissan Chemical Corporation) was continuously administered intravenously at 0.1 mg/kg for 10 minutes via the catheter placed in the jugular vein, followed by observation of the presence or absence of atrioventricular block. After confirmation that atrioventricular block continued for 10 minutes from the onset thereof, a solvent or compound (I) dihydrochloride was continuously administered intravenously at 0.1 mg/kg for 30 minutes, and the effect of terminating atrioventricular block was observed during the intravenous administration. The solvent used was saline (available from Otsuka Pharmaceutical Factory, Inc.). Data were recorded and blood was collected 10, 20, and 30 minutes after initiation of administration of compound (I) dihydrochloride and at the time of termination of atrioventricular block. The observation was terminated 30 minutes after initiation of the administration, and the animal was euthanized by exsanguination or intravenous administration of a large amount of saturated potassium chloride solution under isoflurane anesthesia. Data were analyzed for the presence or absence of the termination, the time required for the termination, and the plasma concentration of compound (I) at the time of termination. The plasma was collected by centrifuging the blood and cryopreserved at about −20° C. After thawing of the plasma, plasma drug concentrations were measured using LC/MS/MS after deproteinization with acetonitrile.
In Table 1, the measurements are shown as mean±standard error.

Series [2] concerns genetically modified animal model. Briefly: Sinus arrest and atrioventricular block in a genetically modified animal model. The format is in vivo.

The record followed here is patent US20260191853A1, “METHOD OF TREATING DRUG-INDUCED BRADYARRHYTHMIA” (OSAKA UNIVERSITY, priority 2022, published 2026).

As for `Cc1cc(CO)nc2cc3c(cc12)OC(C)(C)[C@H](O)[C@H]3NCCc1ccccc1` [Compound (I), (3R,4S)-7-Hydroxymethyl-2,2,9-trimethyl-4-(phenethylamino)-3,4-dihydro-2H-pyrano[2,3-g]quinoline-3-ol], the “effect on siponimod-induced decrease in beating rate” value in series [1] is “increased the beating rate and improved bradyarrhythmia”. For the same molecule, the “fingolimod-induced bradyarrhythmia (atrioventricular block: A-V block) termination” value with Hartley guinea pigs (compound (I) dihydrochloride 0.1 mg/kg continuous i.v.) is given as “completely terminated”. Besides, the “Number of cases where atrioventricular block was terminated” value in the series on Hartley guinea pigs (fingolimod-induced block, compound (I) dihydrochloride 0.1 mg/kg continuous i.v. for 30 minutes) is given as 5/5. In the series on Hartley guinea pigs (fingolimod-induced block, compound (I) dihydrochloride 0.1 mg/kg continuous i.v. for 30 minutes, mean±standard error), the “Time required for the termination of atrioventricular block” value was 750 ± 43 s. Also, the “Compound (I) concentration at the time of termination” value with Hartley guinea pigs (plasma, fingolimod-induced block, 0.1 mg/kg continuous i.v. for 30 minutes, mean±standard error) came to 30.9 ± 1.9 ng/mL. In series [2], the “efficacy for sinus arrest and atrioventricular block” value is “effective”.
